Source: patent publication US20040214867A1, “Quaternary salts of n-substituted cyclic or acyclic amines as pharmaceuticals” (priority 2003, published 2004)

Tested on: citric acid-induced cough responses
Test: Citric acid-induced cough in conscious guinea-pigs (aerosol pre-treatment)
Type: in vivo, guinea-pig
Details: aerosol 10.0 mg/ml immediately before exposure to citric acid (1M); compared with control (procaine) pre-treated guinea pigs; 15 minute observation period
From the text: The following method is one of the general methods available to determine the antitussive activity of the compounds of the present invention.
Male albino Dunkin-Hartley strain guinea-pigs (weight 300-400 g) can be obtained from various commercial suppliers.
The method is a modification of that described by Adcock J. J., Schneider C. and Smith T. W., “Effects of Morphine and a Novel Opioid Pentapeptide BW443C, on Cough, Nociception and Ventilation in the Unanaesthetized Guinea-pig”, Br. J. Pharmacol., 93, 93-100 (1988). […]
Cylinder air is introduced into the exposure chamber at a flow rate of 1 liter/min maintained by a needle valve and monitored by a rotameter. […]
Cough responses are induced by exposure to an aerosol of citric acid (1M) for 10 minutes. Animals are continuously monitored by trained observer, and the number of coughs are counted during a 15 minute period from commencement of the citric acid aerosol administration. […]
The three types of response are differentiated primarily by sound and visual observation. […] Each cough is marked on the Grass polygraph paper trace, and from these record numbers, frequency and time of onset of coughs are determined. […]
Quantities of drugs are weighed out and dissolved in a vehicle. […] The sequence of pre-treatment administration is determined according to a 4×4 Latin Square design. […]

CC[N+](C)(CC)CCOC(=O)c1ccc(N)cc1.[I-] [N-methyl-procaine iodide, 2-[(4-Aminobenzoyl)oxy]-N,N-diethyl-N-methylethanaminium iodide] was tested, and the “inhibition of cough responses” value was > 50%.
